Here are results for two compounds from US20210338609A1, “COMPOSITIONS FOR ADMINISTRATION TO ANIMALS TO INCREASE GUT NON-PROTEIN NITROGEN LEVELS” (D.I.T Technologies Ltd, priority 2018, published 2021).

The test deals with T1, urease (Canavalia ensiformis, UniProt P07374).
T1 construct: purchased Siemens Azostix reagent test strip
Type of test: biochemical. The conditions noted are these: for urea converted to ammonia: within 60 seconds. The source says:
In an embodiment, the physiologically acceptable composition may have a pH of substantially 2. […] The capacity of a composition containing urea to produce ammonia toxicity in ruminant animals can be measured with a urease test strip. These strips contain the enzyme urease. Urease is specific to urea and catalyses the breakdown to ammonia, and the strip undergoes a colour change when the urease strip is exposed to ammonia.
These strips contain the enzyme urease and the indicator bromothymol blue. Urease is specific to urea and breaks it down to ammonia. […] Therefore, the strip turns from yellow to green when the urease strip is exposed to urea. One strip was exposed to a solution of urea at the rate of 1 gram per litre.

Like-named read-outs stand apart in the source and are kept apart here.

T1 sequence (P07374 whole entry, looked up): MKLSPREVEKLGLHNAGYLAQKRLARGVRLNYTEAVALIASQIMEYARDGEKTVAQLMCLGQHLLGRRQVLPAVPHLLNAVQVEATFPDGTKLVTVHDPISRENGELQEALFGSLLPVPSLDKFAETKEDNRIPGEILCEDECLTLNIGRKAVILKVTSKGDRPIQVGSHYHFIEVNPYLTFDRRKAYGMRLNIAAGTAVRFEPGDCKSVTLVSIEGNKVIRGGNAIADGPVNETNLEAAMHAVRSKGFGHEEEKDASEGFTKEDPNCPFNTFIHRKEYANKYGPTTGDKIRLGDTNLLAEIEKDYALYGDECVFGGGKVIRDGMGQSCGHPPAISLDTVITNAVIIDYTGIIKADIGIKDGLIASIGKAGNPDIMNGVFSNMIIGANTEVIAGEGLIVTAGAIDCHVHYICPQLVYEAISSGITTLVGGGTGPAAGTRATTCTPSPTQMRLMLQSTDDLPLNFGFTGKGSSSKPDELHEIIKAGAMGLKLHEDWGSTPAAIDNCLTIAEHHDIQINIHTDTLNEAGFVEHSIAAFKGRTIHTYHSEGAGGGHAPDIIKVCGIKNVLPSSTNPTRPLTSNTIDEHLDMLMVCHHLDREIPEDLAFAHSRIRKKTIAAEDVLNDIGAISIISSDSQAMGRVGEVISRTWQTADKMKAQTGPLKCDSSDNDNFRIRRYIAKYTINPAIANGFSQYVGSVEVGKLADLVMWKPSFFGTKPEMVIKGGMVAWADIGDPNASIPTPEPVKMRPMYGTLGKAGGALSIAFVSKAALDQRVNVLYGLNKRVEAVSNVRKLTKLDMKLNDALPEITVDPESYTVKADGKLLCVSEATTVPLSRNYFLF

On to `NC(N)=O.O=P(O)(O)O` [urea phosphate], for which, where the note is “urea phosphate at 5 grams per litre”, the “colour change of urease test strip (ammonia production)” value is reported as “unchanged”. In addition, the “urea converted to ammonia” value (urea phosphate, 5 grams per litre) is “none”.
Regarding `NC(N)=O` [urea], for the setting “solution of urea at 1 gram per litre”, the “colour change of urease test strip (ammonia production)” value is given as “turned from the unexposed yellow colour to a deep green”. The “urea converted to ammonia” value (urea only mix, 1 gram per litre) is listed as “all”.
